One may read the half-life as how long it takes for the measured level to halve.

The source of these data is US20260124278A1, “COMPOSITIONS AND METHODS FOR TREATMENT OF NEUROLOGICAL DISORDERS” (D&D Pharmatech Inc., priority 2022, published 2026).

Data set [1] has as its system FaSSIF/pancreatin. Briefly: in vitro stability against FaSSIF/pancreatin. The following applies: 0 min. In kind it is in vitro ADME.
The subject of data set [2] is trypsin. The data set can be described thus: in vitro stability against trypsin. Type of data set: in vitro ADME. The following applies: 0 min.
For data set [3] the following is noted: in vivo; cited from earlier work.
Data set [4] concerns primary microglia. The data set can be described thus: α-syn PFF induced microglial activation, cytokine mRNA by qPCR. The following applies: agonist 2 μM, 150 nM PFF for 4 h. In kind it is cell-based, mouse. For orientation: Quantitative PCR measures a nucleic acid by following its amplification.
Method: Mouse microglia isolated from postnatal day 2 CD1 mouse brain were obtained from ScienCell Research Laboratories (M1900, Carlsbad, CA). […] Pre-condition: 24 hrs non-serum condition.
Total RNA from cultured cells was extracted with a RNA isolation kit (Qiagen, Valencia, CA, USA) following the instructions provided by the company. RNA concentration was measured spectrophotometrically using a NanoDrop 2000 (Biotek, Winooski, VT, USA). Subsequently, 1-2 μg of total RNA was reverse transcribed to cDNA using the High-Capacity cDNA Reverse Transcription System (Life Technologies, Grand Island, NY, USA). Comparative qPCR was performed in duplicate or triplicate for each sample using fast SYBR Green Master Mix (Life Technologies) and ViiA 7 Real-Time PCR System (Applied Biosystems, Foster City, CA, USA). The expression levels of target genes were normalized to the expression of Actb and calculated based on the comparative cycle threshold Ct method (2^−ΔΔCt).

As to `CC[C@H](C)[C@H](NC(=O)[C@H](Cc1ccccc1)NC(=O)[C@H](CCC(=O)O)NC(=O)[C@H](CCCCNC(=O)COCCOCCNC(=O)COCCOCCNC(=O)CC[C@H](NC(=O)CCCCCCCCCCCCCCCCC(=O)O)C(=O)O)NC(=O)[C@H](C)NC(=O)[C@H](C)NC(=O)[C@H](CCC(N)=O)NC(=O)CNC(=O)[C@H](CCC(=O)O)NC(=O)[C@H](CC(C)C)NC(=O)[C@H](Cc1ccc(O)cc1)NC(=O)[C@H](CO)NC(=O)[C@H](CO)NC(=O)[C@@H](NC(=O)[C@H](CC(=O)O)NC(=O)[C@H](CO)NC(=O)[C@@H](NC(=O)[C@H](Cc1ccccc1)NC(=O)[C@@H](NC(=O)CNC(=O)[C@H](CCC(=O)O)NC(=O)C(C)(C)NC(=O)[C@@H](N)Cc1cnc[nH]1)[C@@H](C)O)[C@@H](C)O)C(C)C)C(=O)N[C@@H](C)C(=O)N[C@@H](Cc1c[nH]c2ccccc12)C(=O)N[C@@H](CC(C)C)C(=O)N[C@H](C(=O)N[C@@H](CCCNC(=N)N)C(=O)NCC(=O)N[C@@H](CCCNC(=N)N)C(=O)NCC(=O)O)C(C)C` [Semaglutide], the “Remaining amount (%) after FaSSIF/Pancreatin treatment” value in data set [1] was 100.0%. In addition, the “Remaining amount (%) after trypsin treatment” value in data set [2] is on record as 100.0%.
On to “NLY01: long-acting PEGylated form of exenatide”, for which, in data set [3], the half-life is 88 h. In addition, the “α-syn PFF induced mRNA expression of TNF-α, IL-1α, IL-1β, C1q and IL-6” value in data set [4] is “significantly reduces”.
